Tested on: primary CLL samples (CD19+ and CD5+ cells)
Assay: High-throughput dynamic BH3 profiling (HT-DBP): drug-induced apoptotic priming (delta priming), cytochrome c release after BH3 peptide
Format: cell-based, human
Description: By “delta priming” is meant the difference in priming of a cell for apoptosis measured in the presence of an agent for treating chronic lymphocytic leukemia relative to priming of the cell in the presence of an inert carrier. In embodiments, the inert carrier is DMSO.
Dynamic BH3 Profiling Dynamic BH3 profiling (DBP) is a drug screening assay that measures the relative priming of cells in a biological sample for cell death by apoptosis in the presence of a specific compound and/or a pro-apoptotic peptide. By “Dynamic BH3 profiling” is meant measuring drug-induced changes in mitochondrial apoptotic priming. Mitochondrial apoptotic priming is a measure of how close to the apoptotic threshold a cell is. A highly primed cell has relatively less anti-apoptotic binding site availability and is closer to the apoptotic threshold than a poorly primed cell, which has more anti-apoptotic availability to buffer an apoptotic assault and is further from the apoptotic threshold. BH3 peptides derived from the BH3 domain of pro-apoptotic BH3-only proteins provoke a response from viable mitochondria. Cytochrome c released from the mitochondria after a short incubation with BH3 peptide is used as a surrogate for priming. In general, the more sensitive a mitochondrion is to a BH3 peptide, the more primed it is. A drug treatment that enhances priming will cause mitochondria to undergo MOMP more easily when incubated with a fixed concentration of a promiscuously binding BH3 peptide, such as BIM BH3 peptide, compared to control-treated cells. See, for example, Potter, D. S. & Letai, A. To prime, or not to prime: that is the question. Cold Spring Harb. Symp. Quant. Biol. 81, 131-140 (2016); Montero, J. et al. Drug-induced death signaling strategy rapidly predicts cancer response to chemotherapy. Cell 160, 977-989 (2015); Daniels, V. W. et al. Metabolic perturbations sensitize triple-negative breast cancers to apoptosis induced by BH3 mimetics. Sci.
Dynamic BH3 profiling and peptides for use therein are described, for example, in Certo, et al., “Mitochondria primed by death signals determine cellular addiction to antiapoptotic BCL-2 family members,” Cancer Cell, 9:351-365 (2006); and in Foight, et al. “Designed BH3 Peptides with High Affinity and Specificity for Targeting Mcl-1 in Cells,” ACS Chemical Biology, 9:1962-1968 (2014), the disclosures of which are incorporated herein by reference in their entireties for all purposes. The DBP assay enables one to compare the response of a patient tumor sample to a specific drug relative to other drugs and relative to an inert control (e.g., DMSO).
To address the challenge of selecting a proper treatment for a chronic lymphocytic leukemia, experiments were undertaken to optimize high-throughput dynamic BH3 profiling (HT-DBP) for evaluation of the drug sensitivities of CLL samples (FIGS. 1, 13, 5A, 5B, 6A, 6B, and 7A-7C).

[1] = peptide PUMA 1 uM, feature loss_1q21.3
[2] = peptide PUMA 1 uM, feature loss_7p22.2
[3] = peptide MS1 2.5 uM, feature BIRC3
[4] = peptide MS1 2.5 uM, feature CNOT3
[5] = peptide MS1 2.5 uM, feature loss_9p21.3
[6] = peptide MS1 2.5 uM, feature loss_17q11.2
[7] = peptide PUMA 1 uM, feature loss_14q32.12
[8] = peptide BAD 0.3 uM, feature CARD11
[9] = peptide PUMA 1 uM, feature CARD11
[10] = peptide PUMA 1 uM, feature gain_16p11.2
[11] = peptide PUMA 1 uM, feature loss_2q31.1
[12] = peptide PUMA 1 uM, feature loss_10p12.2
[13] = peptide BIM 0.01 uM, feature FBXW7
[14] = peptide BIM 0.01 uM, feature gain_19p13.3
[15] = peptide BAD 0.3 uM, feature M-CLL
[16] = peptide BAD 0.3 uM, feature U-CLL
[17] = peptide PUMA 1 uM, feature FBXW7
[18] = peptide BAD 0.3 uM, feature priortrt_Post
[19] = peptide MS1 2.5 uM, feature EC-m4

CCC[C@H](N[C@H]1CCc2cc(F)cc(F)c2C1)C(=O)Nc1cn(C(C)(C)CNCC(C)(C)C)cn1 [Nirogacestat]
Resistant: direction (peptide BAD 0.3 uM, feature loss_1p36.11) | direction (peptide BAD 0.3 uM, feature loss_3p13) | direction (peptide BAD 0.3 uM, feature loss_18q21.2)
Sensitive: direction (peptide BIM 0.01 uM, feature EC-m2) | direction (peptide BIM 0.01 uM, feature tri_12) | direction (peptide PUMA 1 uM, feature BIRC3) | direction [1] | direction [2] | direction (peptide PUMA 1 uM, feature loss_9p21.3) | direction (peptide PUMA 1 uM, feature loss_17q11.2)

Cc1c(-c2ccc(N3CCc4cccc(C(=O)Nc5nc6ccccc6s5)c4C3)nc2C(=O)O)cnn1CC12CC3CC(CC(C3)C1)C2 [A-1331852]
Sensitive: direction (peptide BAD 0.3 uM, feature CNOT3) | direction (peptide BIM 0.01 uM, feature EC-u2) | direction (peptide PUMA 1 uM, feature CNOT3)
Resistant: direction (Feature EC-m2) | direction (peptide BIM 0.01 uM, feature CARD11) | direction (peptide BIM 0.01 uM, feature MYD88) | direction (peptide PUMA 1 uM, feature EC-m2) | direction (peptide PUMA 1 uM, feature loss_6q21)

Cn1c(CCCC(=O)O)nc2cc(N(CCCl)CCCl)ccc21 [Bendamustine]
Sensitive: direction (Feature loss_5p15.33) | direction (Feature loss_7p22.2) | direction (Feature loss_12p13.31a) | direction (Feature loss_14q32.12) | direction (peptide BAD 0.3 uM, feature EC-i) | direction (peptide BAD 0.3 uM, feature loss_1q42.13) | direction (peptide BAD 0.3 uM, feature loss_5p15.33) | direction (peptide BAD 0.3 uM, feature loss_7p22.2) | direction (peptide BAD 0.3 uM, feature loss_12p13.31a) | direction (peptide BAD 0.3 uM, feature loss_14q32.12) | direction (peptide BAD 0.3 uM, feature loss_16p11.2) | direction [3] | direction [4] | direction [5] | direction [6] | direction (peptide PUMA 1 uM, feature gain_7q22.1) | direction [7]

O=C(CCCCCCNC(=O)c1cnc(N(c2ccccc2)c2ccccc2)nc1)NO [Ricolinostat]
Sensitive: direction [8] | direction [4] | direction (peptide MS1 2.5 uM, feature m-CLL) | direction [9] | direction (peptide PUMA 1 uM, feature m-CLL)
Resistant: direction (peptide BIM 0.01 uM, feature i-CLL) | direction (peptide BIM 0.01 uM, feature loss_15q15.1b) | direction (peptide BIM 0.01 uM, feature loss_20p11.22) | direction (peptide MS1 2.5 uM, feature loss_10q24.32) | direction [10] | direction (peptide PUMA 1 uM, feature i-CLL) | direction [1] | direction [11] | direction (peptide PUMA 1 uM, feature loss_3p21.31) | direction (peptide PUMA 1 uM, feature loss_5p15.33) | direction [2] | direction [12] | direction (peptide PUMA 1 uM, feature loss_12p13.31a) | direction [7] | direction (peptide PUMA 1 uM, feature loss_15q15.1b) | direction (peptide PUMA 1 uM, feature loss_16q22.1) | direction (peptide PUMA 1 uM, feature loss_17p13.3) | direction (peptide PUMA 1 uM, feature loss_20p11.22)

Nc1ncn([C@@H]2O[C@H](CO)[C@@H](O)[C@H]2O)c(=O)n1 [Azacitidine]
Resistant: direction (peptide BIM 0.01 uM, feature BIRC3) | direction [13] | direction (peptide BIM 0.01 uM, feature ITIH2) | direction [14] | direction (peptide BIM 0.01 uM, feature loss_9p21.3) | direction (peptide BIM 0.01 uM, feature loss_17q11.2)
Sensitive: direction (Feature CARD11) | direction [8] | direction (peptide BAD 0.3 uM, feature MYD88) | direction (peptide BAD 0.3 uM, feature loss_19p13.11) | direction [3] | direction (peptide MS1 2.5 uM, feature ITIH2) | direction [5] | direction [6] | direction (peptide MS1 2.5 uM, feature loss_19p13.11) | direction [9]

CC(C)c1c(C(=O)Nc2ccccc2)c(-c2ccccc2)c(-c2ccc(F)cc2)n1CC[C@@H](O)C[C@@H](O)CC(=O)O [Atorvastatin]
Resistant: direction [15] | direction (peptide BAD 0.3 uM, feature m-CLL) | direction (peptide BIM 0.01 uM, feature EC-u1) | direction [13] | direction (peptide BIM 0.01 uM, feature RFX7) | direction (peptide BIM 0.01 uM, feature ZMYM3) | direction [14] | direction (peptide BIM 0.01 uM, feature loss_2q31.1) | direction (peptide BIM 0.01 uM, feature loss_10p12.2) | direction (peptide BIM 0.01 uM, feature loss_10q24.2) | direction (peptide BIM 0.01 uM, feature n-CLL) | direction (peptide MS1 2.5 uM, feature RFX7) | direction (peptide MS1 2.5 uM, feature ZMYM3) | direction (peptide MS1 2.5 uM, feature loss_2q31.1) | direction (peptide MS1 2.5 uM, feature loss_10p12.2) | direction (peptide MS1 2.5 uM, feature loss_10q24.2) | direction (peptide MS1 2.5 uM, feature loss_11q22.3) | direction (peptide MS1 2.5 uM, feature n-CLL) | direction [17] | direction (peptide PUMA 1 uM, feature RFX7) | direction (peptide PUMA 1 uM, feature ZMYM3) | direction [10] | direction [11] | direction [2] | direction [12]
Sensitive: direction (peptide BAD 0.3 uM, feature EC-u1) | direction (peptide BAD 0.3 uM, feature FBXW7) | direction (peptide BAD 0.3 uM, feature RFX7) | direction [16] | direction (peptide BAD 0.3 uM, feature ZMYM3) | direction (peptide BAD 0.3 uM, feature gain_19p13.3) | direction (peptide BAD 0.3 uM, feature n-CLL)

COc1ccc(C2=N[C@@H](c3ccc(Cl)cc3)[C@@H](c3ccc(Cl)cc3)N2C(=O)N2CCNC(=O)C2)c(OC(C)C)c1 [Nutlin-3]
Sensitive: direction [15] | direction [19] | direction (peptide PUMA 1 uM, feature EC-m4)
high priming: drug-induced apoptotic priming (across CLL subtypes, 65 primary CLL samples, 20 hours drug)
most sensitive: drug-induced apoptotic priming by expression cluster (EC-m1)
0.3373: dprim_pearson_corr [19]
−0.4166: dprim_pearson_corr [18]
−0.4093: dprim_pearson_corr [16]
Resistant: direction (Feature FBXW7) | direction (Feature priortrt_Post) | direction [16] | direction [18] | direction [17] | direction (peptide PUMA 1 uM, feature loss_17p13.1) | direction (peptide PUMA 1 uM, feature priortrt_Post)
0.4093: dprim_pearson_corr [15]

Reference: patent US20250255889A1, “METHODS FOR TREATMENT SELECTION FOR CHRONIC LYMPHOCYTIC LEUKEMIA (CLL)” (The Broad Institute, Inc., priority 2022, published 2025)
